PMC10786919, “Design-rules for stapled peptides with in vivo activity and their application to Mdm2/X antagonists” (Nature Communications, 2024)
In brackets after ≈: the same amount, converted by molar mass. Where two headings read alike, the source gives them in different places. Positions of bridges follow the written chain, without caps; N, C: chain ends. Non-standard residues stand in square brackets, D forms with d. Residues, ends and D or L forms follow the SMILES beside them. Lys(N3) = [N-]=[N+]=NCCCC[C@H](N)C(=O)O; R8 = C=CCCCCCC[C@@](C)(N)C(=O)O; Cba = N[C@@H](CC1CCC1)C(=O)O; S5 = C=CCCC[C@](C)(N)C(=O)O; Aib = CC(C)(N)C(=O)O; βAla = NCCC(=O)O

Experiments:
[1] = Lactate dehydrogenase (LDH) release assay; type: cell-based
Method in brief: (§1)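 HCT116 cells stably carrying a p53-responsive β-lactamase reporter, seeded at 8000 cells/well, exposed to compound with 0.5% final DMSO. LDH release read with the CytoTox-ONE membrane integrity kit. Values are geometric means of at least three biological replicates.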

[2] = system: CellSensor p53RE-bla HCT-116 Cell Line; conditions: 72 h
Protocol: (§2) The medium for CellSensor™ p53RE-bla HCT-116 cells was McCoy’s 5 A Medium (GIBCO16600-002) supplied with 10% FBS (Hyclone, SH30406.05), 100 U/100ug/ml of Pen/Strep (SolarBio, P1400) and 5 μg/ml of blasticidin (GIBCO, A11139). The medium for Ca Ski cells was RPMI1640 (Hyclone, SH3080901B) supplied with 10% FBS and 100 U/100ug/ml of Pen/Strep. All cells were kept in humidified incubators with 5% CO2 at 37 °C. Culture media was changed after one day of subculturing and cells were passed again when there was 70–80% confluence. One day before the assay, the cells were trypsinized, collected, counted and viability was determined. […] The plates were kept in humidified incubators with 5% CO2 at 37 °C overnight. Compounds were prepared as a 10 point, 3x serial dilution in 100% DMSO, starting from a top concentration of 10 mM. […] At the end of the incubation the assay plate was equilibrated at room temperature for approximately 30 minutes prior to the addition of 25 uL of CellTiter-Glo® 2.0 Reagent. The assay plate was mixed for 2 minutes on an orbital shaker to induce cell lysis. Next, the plate was incubated at room temperature for 10 minutes to stabilize the luminescent signal prior to recording the luminescence on a plate reader.

Ca Ski cell line = conditions: 72 h
Protocol: as §2

in vitro = assay: in vitro
Method in brief: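 Azido-peptide permeability was read as loss of NanoBRET signal (donor 450 nm, acceptor 610 nm) after adding NanoBret618-azide at 10 μM final.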

[3] = Experimental LogD (partition coefficient); conditions: for logD: Partition Coeff LogD
[4] = Solubility assay (kinetic solubility, PBS pH 7); type: physicochemical; conditions: for solubility kinetic: pH 7, aqueous buffer, kinetic from dmso stock, read-out: Solubility
Method in brief: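 Next, measure peak areas of sample and standard. Finally, multiply their ratio by the standard concentration to obtain solubility (µM).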

HCT116 cells = assay: Lactate dehydrogenase (LDH) release assay; type: cell-based
Method in brief: as §1

[5] = Nanoclick permeability assay EC50

Compound | cell entry EC50 (in vitro; [5]) | logD ([3]; not stated) | solubility kinetic ([4]; pH 7, PBS) | LDH: Cytotoxicity assay: % Effect (HCT116 cells) | EC50 ([1]; LDH: Cytotoxicity assay: EC50) | EPSA (physchem) | also measured
CC(=O)N[C@@H](CCCCN=[N+]=[N-])C(=O)NCCC(=O)N[C@@H](CC(C)C)C(=O)N[C@H](C(=O)N[C@@H](Cc1ccccc1)C(=O)N[C@]1(C)CCCCCCC=CCCC[C@@](C)(C(=O)N[C@@H](C)C(=O)N[C@@H](C)C(=O)N[C@@H](C)C(=O)N[C@@H](C)C(=O)N[C@@H](C)C(N)=O)NC(=O)[C@H](CC2CCC2)NC(=O)[C@H](CCC(N)=O)NC(=O)[C@H](C)NC(=O)[C@H](Cc2c[nH]c3ccccc23)NC(=O)[C@H](Cc2ccc(O)cc2)NC(=O)[C@H](CCC(=O)O)NC1=O)[C@@H](C)O [MP-685] (Ac-[Lys(N3)][βAla]LTF[R8]EYWAQ[Cba][S5]AAAAA-NH2; staple 6-13) | > 10 µM | – | – | – | – | – | EC50 ([1]; LDH: Cytotoxicity assay EC50): > 50.7 µM; EC50 [2]: 9.55 µM; EC50 (Ca Ski cell line): 22.8 µM
CC(=O)N[C@@H](CCCCN=[N+]=[N-])C(=O)NCCC(=O)N[C@@H](CC(C)C)C(=O)N[C@H](C(=O)N[C@@H](Cc1ccccc1)C(=O)N[C@]1(C)CCCCCCC=CCCC[C@@](C)(C(=O)N[C@@H](CCO)C(=O)N[C@@H](CCO)C(=O)N[C@@H](Cc2ccccc2)C(=O)N[C@@H](CCO)C(=O)N[C@@H](CCO)C(=O)N[C@@H](Cc2ccccc2)C(N)=O)NC(=O)[C@H](CC2CCC2)NC(=O)[C@H](CCC(N)=O)NC(=O)[C@H](C)NC(=O)[C@H](Cc2c[nH]c3ccccc23)NC(=O)[C@H](Cc2ccc(O)cc2)NC(=O)[C@H](CCC(=O)O)NC1=O)[C@@H](C)O [MP-802] | 9.16 µM | 3.08 | – | – | – | – | EC50 ([1]; LDH: Cytotoxicity assay EC50): > 50.7 µM; Solubility [4]: P.B.; EC50 [2]: 4.58 µM
CC(=O)N[C@@H](CCCCN=[N+]=[N-])C(=O)NCCC(=O)N[C@@H](CC(C)C)C(=O)N[C@H](C(=O)N[C@@H](Cc1ccccc1)C(=O)N[C@]1(C)CCCCCCC=CCCC[C@@](C)(C(=O)N[C@@H](C)C(=O)N[C@@H](C)C(=O)N[C@H](C)C(=O)N[C@@H](C)C(=O)N[C@@H](C)C(=O)N[C@H](C)C(N)=O)NC(=O)[C@H](CC2CCC2)NC(=O)[C@H](CCC(N)=O)NC(=O)[C@H](C)NC(=O)[C@H](Cc2c[nH]c3ccccc23)NC(=O)[C@H](Cc2ccc(O)cc2)NC(=O)[C@H](CCC(=O)O)NC1=O)[C@@H](C)O [MP-425] (Ac-[Lys(N3)][βAla]LTF[R8]EYWAQ[Cba][S5]AA[dA]AA[dA]-NH2; staple 6-13) | – | – | 185 µM (≈ 401 µg/mL) | – | – | – | EC50 ([1]; LDH: Cytotoxicity assay EC50): > 50.7 µM; EC50 [2]: 1.27 µM; EC50 (Ca Ski cell line): 47.3 µM
CC(=O)N[C@@H](CCCCN=[N+]=[N-])C(=O)NCCC(=O)N[C@@H](CC(C)C)C(=O)N[C@H](C(=O)N[C@@H](Cc1ccccc1)C(=O)N[C@]1(C)CCCCCCC=CCCC[C@@](C)(C(=O)N[C@@H](CO)C(=O)N[C@@H](C)C(=O)N[C@@H](C)C(N)=O)NC(=O)[C@H](CC2CCC2)NC(=O)[C@H](CCC(N)=O)NC(=O)[C@H](C)NC(=O)[C@H](Cc2c[nH]c3ccccc23)NC(=O)[C@@H](CCC(=O)O)NC(=O)[C@H](C)NC1=O)[C@@H](C)O [MP-036] (Ac-[Lys(N3)][βAla]LTF[R8]A[dE]WAQ[Cba][S5]SAA-NH2; staple 6-13) | 0.053 µM | – | – | 2.628% | > 50.6 µM | 188 A^2 | Partition Coeff LogD [3]: Poorly Behaved; Solubility ([4]; pH 7, PBS): Poorly Behaved
CC(C)C[C@@H]1NC(=O)[C@H](C)NC(=O)[C@H](Cc2c[nH]c3ccccc23)NC(=O)[C@H](Cc2ccc(O)cc2)NC(=O)[C@H](CCC(=O)O)NC(=O)[C@](C)(NC(=O)[C@H](Cc2ccccc2)NC(=O)[C@H](CO)NC(=O)[C@@H](NC(=O)CCNC(=O)[C@@H](N)CCCCN=[N+]=[N-])[C@@H](C)O)CCCCCCC=CCCC[C@@](C)(C(N)=O)NC(=O)[C@H](CC(C)C)NC1=O [MP-0177] | 0.13 µM | 2.7 | – | -0.29% | > 50.6 µM | 218 A^2 | Solubility ([4]; pH 7, PBS): Poorly Behaved
CC(=O)N[C@@H](CCCCN=[N+]=[N-])C(=O)NCCC(=O)NCC(=O)N[C@H](C(=O)N[C@@H](Cc1ccccc1)C(=O)N[C@]1(C)CCCCCCC=CCCC[C@@](C)(C(=O)N[C@@H](CO)C(=O)N[C@@H](C)C(=O)N[C@@H](C)C(N)=O)NC(=O)[C@H](CC2CCC2)NC(=O)[C@H](CCC(N)=O)NC(=O)CNC(=O)[C@H](Cc2c[nH]c3ccccc23)NC(=O)[C@H](Cc2ccc(O)cc2)NC(=O)CNC1=O)[C@@H](C)O [MP-692] (Ac-[Lys(N3)][βAla]GTF[R8]GYWGQ[Cba][S5]SAA-NH2; staple 6-13) | 1.39 µM | 2.73 | 2 µM (≈ 3.66 µg/mL) | 2.18% | > 50.6 µM | 200 A^2 | –
CC(=O)N[C@@H](CCCCN=[N+]=[N-])C(=O)N[C@@H](CO)C(=O)NCC(=O)N[C@@H](CO)C(=O)N[C@@H](CC(C)C)C(=O)N[C@H](C(=O)N[C@@H](Cc1ccccc1)C(=O)N[C@]1(C)CCCCCCC=CCCC[C@@](C)(C(=O)N[C@@H](CO)C(=O)N[C@@H](C)C(=O)N[C@@H](C)C(N)=O)NC(=O)[C@H](CC2CCC2)NC(=O)[C@H](CCC(N)=O)NC(=O)[C@H](C)NC(=O)[C@H](Cc2c[nH]c3ccccc23)NC(=O)[C@H](Cc2ccc(O)cc2)NC(=O)[C@H](CCC(=O)O)NC1=O)[C@@H](C)O [MP-619] | 0.63 µM | 2.67 | 110 µM (≈ 235 µg/mL) | 11.42% | > 50.6 µM | 227 A^2 | –
CC(=O)N[C@@H](CCCCN=[N+]=[N-])C(=O)NCCC(=O)N[C@@H](CC(C)C)C(=O)N[C@H](C(=O)N[C@@H](Cc1ccccc1)C(=O)N[C@]1(C)CCCCCCC=CCCC[C@@](C)(C(=O)N[C@@H](CO)C(=O)N[C@@H](C)C(=O)N[C@@H](C)C(N)=O)NC(=O)[C@H](CC2CCC2)NC(=O)[C@H](CCC(N)=O)NC(=O)[C@H](C)NC(=O)[C@H](Cc2c[nH]c3ccccc23)NC(=O)[C@H](Cc2ccc(O)cc2)NC(=O)[C@H](CCC(=O)O)NC1=O)C(C)C [MP-258] (Ac-[Lys(N3)][βAla]LVF[R8]EYWAQ[Cba][S5]SAA-NH2; staple 6-13) | 0.146 µM | 2.93 | 79 µM (≈ 155 µg/mL) | -5.925% | > 50.6 µM | 213 A^2 | –
CC(=O)N[C@@H](CCCCN=[N+]=[N-])C(=O)NCCC(=O)N[C@@H](CC(C)C)C(=O)N[C@H](C(=O)N[C@@H](Cc1ccccc1)C(=O)N[C@]1(C)CCCCCCC=CCCC[C@@](C)(C(=O)N[C@@H](CO)C(=O)N[C@@H](C)C(=O)N[C@@H](C)C(N)=O)NC(=O)[C@H](CC2CCC2)NC(=O)[C@H](CCC(N)=O)NC(=O)[C@H](CC(C)C)NC(=O)[C@H](Cc2c[nH]c3ccccc23)NC(=O)[C@H](Cc2ccc(O)cc2)NC(=O)[C@H](CC(C)C)NC1=O)[C@@H](C)O [MP-693, AZIDE-ATSP-7041 (E5L, A8L)] (Ac-[Lys(N3)][βAla]LTF[R8]LYWLQ[Cba][S5]SAA-NH2; staple 6-13) | – | 4.68 | < 1 µM | – | – | 196 A^2 | logD ([3]; experimental): 2.92; LDH: Cytotoxicity assay: % Effect (HCT116 cells; 0% FBS 4Hr): -2.781%; LDH: Cytotoxicity assay: % Effect (HCT116 cells; 10% FBS 4Hr): 12.6%; EC50 ([1]; 0% FBS 4Hr, read-out: LDH: Cytotoxicity assay: EC50): > 50.6 µM; EC50 ([1]; 10% FBS 4Hr, read-out: LDH: Cytotoxicity assay: EC50): > 50 µM; cell entry EC50 (in vitro): 0.29 µM
CC(=O)N[C@@H](CCCCN=[N+]=[N-])C(=O)NCCC(=O)N[C@@H](CC(C)C)C(=O)N[C@H](C(=O)N[C@@H](Cc1ccccc1)C(=O)N[C@]1(C)CCCCCCC=CCCC[C@@](C)(C(=O)N[C@@H](CO)C(=O)NC(C)(C)C(=O)N[C@@H](C)C(N)=O)NC(=O)[C@H](CC2CCC2)NC(=O)[C@H](CCC(N)=O)NC(=O)[C@H](C)NC(=O)[C@H](Cc2c[nH]c3ccccc23)NC(=O)[C@H](Cc2ccc(O)cc2)NC(=O)[C@H](CCC(=O)O)NC1=O)[C@@H](C)O [MP-257] (Ac-[Lys(N3)][βAla]LTF[R8]EYWAQ[Cba][S5]S[Aib]A-NH2; staple 6-13) | 0.469 µM | 2.97 | 25 µM (≈ 49.6 µg/mL) | -4.69% | 4.55 µM | 210 A^2 | –
CC(C)C[C@@H]1NC(=O)[C@H](C)NC(=O)[C@H](Cc2c[nH]c3ccccc23)NC(=O)[C@H](Cc2ccc(O)cc2)NC(=O)[C@H](CCC(=O)O)NC(=O)[C@](C)(NC(=O)[C@H](Cc2ccccc2)NC(=O)[C@H](CO)NC(=O)[C@@H](NC(=O)[C@H](CO)NC(=O)CNC(=O)[C@@H](N)CCCCN=[N+]=[N-])[C@@H](C)O)CCCCCCC=CCCC[C@@](C)(C(N)=O)NC(=O)[C@H](CC(C)C)NC1=O [MP-0179] | 0.503 µM | 2.57 | – | 3.75% | > 50.6 µM | 230 A^2 | Solubility ([4]; pH 7, PBS): Poorly Behaved
